For assay [1], the system named is P. gingivalis wild-type W83. Briefly: Checkerboard / broth micro-dilution assay (MIC, MBC), wild-type W83. Format: cell-based, Porphyromonas gingivalis. The text has this: (§1) Fig. 5 A prototype DPIX-conjugated antibiotic binds HusA and inhibits P. gingivalis. a The chemical structure of the deuteroporphyrin-lysine-metronidazole adduct, P8. b NMR signal intensity changes (black) and ^1H^N CSPs (red/green) for HusA upon addition of P8 (measured from ^15N-HSQC spectra shown in Supplementary Figure 21). c In silico docking of P8 to the energy minimized structure of HusA (conformer set 1), with residues experiencing NMR signal loss (orange) or CSPs (red/green) mapped to the structure (colouring as described in Fig. 2d). d Scaled and corrected fluorescence at 335 nm during titration of 1 μM of HusA with increasing concentrations of P8, haemin or DPIX. e Comparison of P8 inhibitory effect towards P. gingivalis wild-type W83 and husA mutants using checkerboard analysis. Serial dilutions of antibiotics (horizontal axis) were applied to a 96-well plate with different P. gingivalis strains (vertical axis). Serial dilutions of DPIX were also supplemented into wild-type W83 group to evaluate the competitive effect against P8. Absorption at OD600 of each well was recorded after 24 h of incubation. The OD600 of each strain grown in the absence of antibiotics was defined as 100% growth, which was applied to normalise the reading collected from other wells. The normalised percentage of each well was plotted in the checkerboard. Metronidazole alone and in combination with PPIX or DPIX was applied as control. f Intracellular killing assay of P8 antibiotics. Gingival H413 epithelial cells were infected by P. gingivalis W83 and then treated with P8 at various concentrations. Recovered bacteria were determined by CFU count. Metronidazole and DMSO were used as control. Three independent experiments with triplicate assays were conducted. […]
For orientation: Dilution methods test growth across graded concentrations, often in twofold steps.

The subject of assay [2] is P. gingivalis W83 within gingival H413 epithelial cells. Briefly: Intracellular killing assay in infected H413 epithelial cells. Format: cell-based, Porphyromonas gingivalis. As to conditions: H413 cells infected by W83, CFU count.
Source text: as §1, with “The normalised percentage of each well was plotted in the checkerboard. Metronidazole alone and in combination with PPIX or DPIX was applied as control. f Intracellular killing assay of P8 antibiotics. Gingival H413 epithelial cells were infected by P. gingivalis W83 and then treated with P8 at various concentrations.” left out, “count.” for “count. Metronidazole and DMSO were used as control. Three independent experiments with triplicate assays were conducted.”

For assay [3], the system named is P. gingivalis wild-type W83. Description: P8 growth inhibition under iron restriction (100 µM dipyridyl). Format: cell-based, Porphyromonas gingivalis. As to conditions: P8 at 1 µM (below the MIC).
Source text: as §1, with “The normalised percentage of each well was plotted in the checkerboard. Metronidazole alone and in combination with PPIX or DPIX was applied as control. f Intracellular killing assay of P8 antibiotics. Gingival H413 epithelial cells were infected by P. gingivalis W83 and then treated with P8 at various concentrations.” left out, “count.” for “count. Metronidazole and DMSO were used as control. Three independent experiments with triplicate assays were conducted.”

In assay [4] the target is T1, HusA (Porphyromonas gingivalis, UniProt Q7MSY3).
T1 sequence (Q7MSY3 24-218): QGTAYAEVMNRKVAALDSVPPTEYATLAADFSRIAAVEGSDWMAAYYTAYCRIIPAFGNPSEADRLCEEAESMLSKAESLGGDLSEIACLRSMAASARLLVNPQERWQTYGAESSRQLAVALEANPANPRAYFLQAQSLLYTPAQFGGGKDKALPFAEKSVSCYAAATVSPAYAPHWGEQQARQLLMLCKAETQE
Briefly: Tryptophan fluorescence quenching assay, HusA wild-type. The class given is binding. Here is the method: (§2) The quenching of intrinsic tryptophan fluorescence of HusA upon porphyrin additions was measured using a Carey Eclipse Fluorescence Spectrophotometer (Agilent) set to a photo multiplier effect (PME) of 850. A 5-mm path length quartz cuvette was used and all spectra were acquired at room temperature. Excitation was set to 295 nm and emission was measured from 300 nm to 500 nm using excitation/emission slit widths of 5 nm. Binding assays were performed at a protein concentration of 1 μM HusA in standard buffer at a working volume of 0.5 mL. […] The fluorescence quenching of HusA by PPIX was investigated in a similar manner with the following difference: the fluorescence intensities of ten 1 μM HusA samples were measured each with increasing amounts of PPIX after a 2-h incubation period to allow equilibrium to be reached. See Supplementary Methods for correction for inner filter effect and curve fitting. […]
Correction of inner filter effect and curve fitting in tryptophan fluorescence quenching assays The concentration of NATA was chosen such that the raw fluorescence intensity was similar to the […] concentrations of HusA and mutants used. The same molarity titrants of porphyrin were titrated into NATA as were added into HusA in the control reactions. Fluorescence intensity was scaled with respect to the starting florescence and corrected for the inner filter effect. Fluorescence at 335 nm was used to fit binding curves.
The correction method is based on Fonin AV., et al.26, noting that a Cary Eclipse spectrofluorimeter […]
performed to measure the contribution to the decrease in fluorescence due to the inner filter effect and this effect was scaled to the starting fluorescence values as fractional changes. The measured fluorescence at each titration point for each of the porphyrin titrations into protein was then adjusted for this contribution. Fluorescence at 335 nm was used to fit binding curves. Association constant, Ka, was fitted using the following equation in Origin, assuming a single binding site. A dissociation constant, Kd, was calculated by taking the inverse of the Ka.
Xobs = XA×f A+XAB×f AB (1) where XA is the corrected fluorescence, fA=1-fAB, fAB=x/(Bt), x=(-b-sqrt(b2-4×c))/2, b=-(1/Ka+At+Bt), c=Bt×At, Bt=total concentration of protein, At=total concentration of ligand.
To aid comparison of the different titrations, the corrected fluorescence was scaled to the starting fluorescence in the absence of porphyrins (i.e. all fluorescence curves have a starting value of one

Assay [5] has as its target T2, HusA Y164A (Porphyromonas gingivalis, UniProt Q7MSY3, Y164A).
T2 sequence (Q7MSY3 24-218 Y164A): T1 sequence (Q7MSY3 24-218)
Briefly: Tryptophan fluorescence quenching assay, HusA mutant Y164A. The class given is binding. Here is the method: as §2
Correction of inner filter effect and curve fitting in tryptophan fluorescence quenching assays The concentration of NATA was chosen such that the raw fluorescence intensity was similar to the 10 uM concentrations of HusA and mutants used. […] Fluorescence intensity was scaled with respect to the starting florescence and corrected for the inner filter effect. Fluorescence at 335 nm was used to fit binding curves. […]

The target in assay [6] is HusA. As to conditions: previously reported; now considered far weaker; cited from earlier work.
Assay [7] concerns HusA NNNA. Briefly: Haemin binding to HusA mutant with all four mutations (NNNA), UV-vis and fluorescence. On the set-up: species or system Porphyromonas gingivalis. As to conditions: mutant incorporating all four mutations (L123, V124, W130, Y164). Here is the method: All absorbance spectra were recorded at room temperature using 10-mm quartz cuvettes on a Shimadzu UV-1601 or Jasco V-630 spectrophotometer. Mixtures of HusA/mutant with porphyrins were prepared by dissolving porphyrin stocks in standard buffer to a final concentration of 5–20 μM with a 1–1.5 molar ratio of protein to porphyrin, as specified in the relevant figure legends. PPIX:HusA mixtures were prepared by incremental addition of 2–4 μM HusA with a 10–15 min wait after each addition of HusA.
as §2, with “reached.” for “reached. See Supplementary Methods for correction for inner filter effect and curve fitting.”

These results are taken from publication PMC6173696, “Structural properties of a haemophore facilitate targeted elimination of the pathogen Porphyromonas gingivalis” (Nature Communications, 2018).

Read-outs that look alike come from different tables or passages of the source.

Regarding `CC1=Cc2cc3[nH]c(cc4nc(cc5[nH]c(cc1n2)cc5C)C(C)=C4CCC(=O)N[C@@H](CCCCNC(=O)OC(C)(C)C)C(=O)NCCn1c([N+](=O)[O-])cnc1C)c(CCC(=O)O)c3C` [P8], in assay [1] (Porphyromonas gingivalis, no growth recovery on eTSB agar plate, read-out: minimal bactericidal concentration), the MBC fell in the range of 10 to 20 µM. Besides, the MIC in assay [1] (Porphyromonas gingivalis, planktonic W83, 24 h, anaerobic, read-out: minimal inhibitory concentration) lay in the range of 1.25 to 2.5 µM. Moreover, in assay [1] (planktonic W83), the “killing of extracellular P. gingivalis” value is recorded as “more effective than metronidazole”. Also, in assay [2], the “killing of intracellular P. gingivalis” value is “more effective than metronidazole”. Also, in assay [3], the “susceptibility of W83 under iron restriction” value is on record as “susceptible”. Besides, the Kd in assay [4] (estimate by comparison to other porphyrins, not fitted, UV-visible absorption and fluorescence data, read-out: affinity for HusA) was 1 to 10 µM.
For `C=CC1=C(C)c2cc3[nH]c(cc4nc(cc5[nH]c(cc1n2)c(C)c5CCC(=O)O)C(CCC(=O)O)=C4C)c(C)c3C=C.[Fe+3]` [haemin], the “reduction of haemin affinity compared to wild-type” value in assay [5] is recorded as over 50%. For the same molecule, the Kd was about 0.002 µM in assay [6] and 7.3 ± 1.1 µM in assay [4] (HusA wild-type 1 µM, fit to 1:1 binding model). Also, in assay [7], the binding to haemin result is listed as “minimal binding”.
